In patent US9888679B2, “Protection of progenitor cells and regulation of their differentiation” (Proteobioactives Pty Ltd, priority 2007, dated 2018):
“Also recorded” adds a separate entry of the source.

Legend:
Assay type in all cases: cell-based
Normal Human MSCs = assay: Freeze/thaw viability of MSCs cryopreserved with PPS, trypan blue cell counts
Protocol: FIG. 1. The Effects of Pentosan Polysulfate (PPS) on Normal Human MSCs Freeze/Thaw Viabilities. MSCs were rapidly thawed in a 37° C. water bath and washed twice with HHF (HBSS containing 5% (v/v) Foetal Calf Serum). The cells were subsequently seeded into multiple T-75 flasks at 8,000 cells/cm^2. The cells were grown until 70-80% confluent, trypsinised and cryopreserved at cell concentrations of 50×10^6/ml in Profreeze®/7.5% DMSO supplemented with PPS at the indicated concentrations. Ampoules were retrieved from liquid nitrogen storage and rapidly thawed, gently mixed and 10 ul samples removed at time=0, 30, 60, 90 and 120 minutes. To each cell sample, 290 ul of trypan blue was added and cell counts/viability testing performed.
Cells were harvested and resuspended in cold serum free culture medium at 5.0 to 20.0×10^6 cells/ml. An equal volume of chilled complete Profreeze®-CDM medium was added to the chilled cell suspension containing 0, 10, 20, 50 and 100 micrograms/mL of PPS. The resulting final DMSO concentration was 7.5%, PPS concentration was 0, 5, 10, 25 and 50 micrograms/mL and the final cell concentration was approximately 2.5 to 10×10^6 cells/ml. The cell mixture was aliquoted into cryopreservation ampoules (Nunc, Intermed, Denmark) and cryopreserved in a C156 Freezing Container (Thermo Scientific, Melbourne, 21 Australia) at −80° C. for a −1° C./minute controlled cooling rate. The ampoules were then transferred to liquid nitrogen storage (−196° C.).
Cyropreserved cells were rapidly thawed for a minute in a 37° C. water bath and transferred to a 10 mL polypropylene tube. Approximately 3 mL of appropriate media was added dropwise to the cells with constant mixing, and made up to a final volume of 10 mL. Cells were pelleted by centrifugation at 400×g, 4° C. for 5 minutes and the supernatant aspirated. To ensure removal of residual DMSO, cells were washed in medium and centrifuged as above. Cells were resuspended in final volume of 10 mL and seeded in a 75 cm^2 flask prior to incubation in a humidified incubator at 37° C. in the presence of 5% CO2.
Aliquots of single-cell suspensions obtained after thawing progenitor cells from the PPS containing cryopreserved vials were diluted in an equal volume of 0.4% (w/v) trypan blue in phosphate buffered saline (PBS). The cell counts were determined using a haemocytometer (Neubauer Improved, Assistant, Germany) and a light microscope (Olympus CKX41, Japan).

human progenitor cells = assay: Type II collagen immunostaining of micromass cultures, 10 days; conditions: FIG. 18
Protocol: FIG. 18. A: Bar graph showing the Pentosan Polysulfate (PPS) concentration dependent stimulation of type II collagen production by human progenitor cells in micromass cultures for 10 days as determined by scanning and digital analysis of the immuno stained micromass cultures shown in B. (see text for details).
Micromass cultures of progenitor cells were established in 24-well culture plates at a starting density of 8×10^4 cells/micromass in 1 ml of DMEM (+10% FBS) with/without various concentrations of Pentosan Polysulfate as described above. On Day-5 and Day-10 of culture, media was removed and cultures were fixed with Histochoice MB (Amresco, Solon, Ohio, USA) for 20-30 min at RT. The fixed cultures were washed twice in PBS (5 min each time); […] then washed in PBS for 5 min. […]. After rinsing, first with a gentle stream of PBS, followed by washing 3 times (5 min each time) with PBS, the wells were blocked with […] rinsing with a gentle stream of PBS then 3×washing (5 min each time) with PBS, to each micromass culture was added 200 μl of 1× (BCIP/Buffer+NBT) and the plates incubated in the reaction was stopped when the purple color first became established in the section by washing in running water. Plates and wells were then photographed with a digital camera and the images analysed by using Image J® software (http://rsb.info.nih.gov/ij/) on a personal computer.

[1] = system: Primary human progenitor cells; assay: Progenitor cell proliferation, WST-1 assay; conditions: FIG. 4
Protocol: (§1) FIG. 4. The Effects of Pentosan Polysulfate (PPS) on Human Progenitor cell Proliferation. Primary human progenitor cells were cultured in 24 well plates in growth media supplemented with PPS at the indicated concentrations. At various time intervals (day 1, 3, 6), the growth media was removed and replaced with phenol red free media containing the tetrazolium salt WST-1 for 2 hours at 37° C./5% CO2. WST-1 is cleaved by mitochondrial dehydrogenase in viable cells to produce a formazan dye that can be detected using an ELISA plate reader at a wavelength of 450 nm. Absorbance at 450 nm for each time point is shown for all concentrations of PPS.
FIG. 20. […] At various time intervals (day 3 & 5), the growth media was removed and replaced with phenol red free media containing the tetrazolium salt WST-1 for 2 hours at 37° C./5% CO2. Absorbance at 450 nm for each time point is shown for all concentrations of PPS and HA.
as §1, with “Primary” for “FIG. 4. The Effects of Pentosan Polysulfate (PPS) on Human Progenitor cell Proliferation. Primary”

## pentosan polysulfate [PPS]
Normal Human MSCs; 5 μg/ml PPS
  cell viability after cryopreservation and thawing: beneficial effect on viability at 60 minutes
Normal Human MSCs; 10 μg/ml PPS
  cell viability after cryopreservation and thawing: beneficial effect at time point 0 and then at 60 and 90 minutes
Normal Human MSCs; 25 μg/ml PPS, all time points instead of 30 minutes
  cell viability after cryopreservation and thawing: either enhanced the viability or did not adversely affect the viability
Normal Human MSCs; 50 μg/ml PPS, with the exception of 30 minutes
  cell viability after cryopreservation and thawing: enhanced the viability of the progenitor cells at all time points
Normal Human MSCs; Profreeze/7.5% DMSO with PPS 5-50 μg/ml, 0-120 min after thawing, FIG. 1
  cell viability after cryopreservation and thawing: did not adversely affect cell viability; also recorded: did not have an adverse effect on the cryopreservation; also recorded: did not have an adverse effect and may enhance the cryopreservation of progenitor cells
Normal Human MSCs; Profreeze/7.5% DMSO with PPS 5-50 μg/ml, 0-120 min after thawing, FIG. 1, listed as polysulfated polysaccharides
  cell viability after cryopreservation and thawing: no detrimental effect on their viability
Human progenitor cells; 0.5-10 μg/ml, 10 days
  Type II Collagen production: Increased Type II Collagen production
Human progenitor cells; 1-10 micrograms/mL for 10 days
  type II collagen staining: intense type II collagen staining
Human progenitor cells; 10 day micromass
  concentration giving maximum type II collagen levels: 5 µg/mL
[1]; 1-5 micrograms/mL, monolayer
  cell division (WST-1 cleavage assay): Marked stimulation of cell division
[1]; day 6, PPS in excess of 1 μg/ml, p<0.01, ANOVA
  proliferation (WST-1, absorbance at 450 nm): statistically significant increase in proliferation
